In brackets after ≈: the same amount, converted by molar mass. Where two headings read alike, the source gives them in different places.
Columns and labels:
[1] = system: bloodstream forms of T. brucei 427-221a; settings: identical experimental conditions, Merschjohann et al. (2001); cited from earlier work
U138 MG (human glioma) = assay: Growth inhibition, MTT colorimetric assay, U138; type: cell-based; settings: Homo sapiens, U138-MG, 72 h; glioma; 3 days with drug; means of six values; unit inferred; read-out: IC50 U138
Protocol: (§1) Compounds that met the criteria for activity on KB3 cells were further tested for drug growth inhibitory activity in 5 carcinoma, 6 glioma and 3 melanoma cell lines, shown in Table 4. A549 (human lung adenocarcinoma epithelial), BxPC3 (pancreatic cancer), LoVo (colon cancer), MCF-7 (epithelial breast cancer), PC3 (human prostate cancer), Hs683 (human glioma), T98G (glioblastoma), U373 (human glioblastoma-astrocytoma), U138 MG (human glioma), epithelial-like), SKMEL28 (human melanoma), B16-F10 (mouse melanoma) and RhTP (rhabdomyosarcoma) cell lines were cultured in presence of the drugs for 3 days. The cytotoxic activity is expressed as (IC50). Inhibition of cell proliferation measured by the MTT colorimetric assay. The values reported in Table 4 are means of six distinct values. The standard errors are <5% as compared to the mean values.

[2] = system: A549 (human lung adenocarcinoma epithelial); assay: Growth inhibition, MTT colorimetric assay, A549; type: cell-based; settings: Homo sapiens, A549, 72 h; carcinoma; 3 days with drug; means of six values; unit inferred; read-out: IC50 A549
Protocol: as §1, with “A549” for “Compounds that met the criteria for activity on KB3 cells were further tested for drug growth inhibitory activity in 5 carcinoma, 6 glioma and 3 melanoma cell lines, shown in Table 4. A549”, “values.” for “values. The standard errors are <5% as compared to the mean values.”

Host = assay: Growth inhibition, MTT colorimetric assay, Host; type: cell-based; settings: 72 h; 3 days with drug; means of six values; unit inferred; read-out: IC50 Host
Protocol: as §1

SKMEL28 (human melanoma) = assay: Growth inhibition, MTT colorimetric assay, SKMEL-28; type: cell-based; settings: Homo sapiens, SK-MEL-28, 72 h; melanoma; 3 days with drug; means of six values; unit inferred; read-out: IC50 SKMEL-28
Protocol: as §1

LoVo (colon cancer) = assay: Growth inhibition, MTT colorimetric assay, LoVo; type: cell-based; settings: Homo sapiens, LoVo, 72 h; carcinoma; 3 days with drug; means of six values; unit inferred; read-out: IC50 LoVo
Protocol: as §1, with “A549” for “Compounds that met the criteria for activity on KB3 cells were further tested for drug growth inhibitory activity in 5 carcinoma, 6 glioma and 3 melanoma cell lines, shown in Table 4. A549”, “values.” for “values. The standard errors are <5% as compared to the mean values.”

GL19 = assay: Growth inhibition, MTT colorimetric assay, GL19; type: cell-based; settings: GL19, 72 h; 3 days with drug; means of six values; unit inferred; read-out: IC50 GL19
Protocol: as §1

[3] = system: bloodstream forms of T. brucei and T. congolense; assay: Trypanocidal activity in vitro, Alamar Blue assay; type: cell-based, Trypanosoma brucei and T. congolense; settings: 48 h total incubation; for GI50: 50% growth inhibition, read-out: GI50; for MIC: lowest concentration at which all cells were killed, read-out: MIC
Excerpt: Trypanosoma brucei and T. congolense are the causative agents of sleeping sickness in humans and nagana in cattle, respectively. The protozoan parasites live extracellularlyin blood and tissue fluids of mammals and are transmitted by the bite of infected tsetse flies (Glossina spp.). Here the trypanocidal activity against bloodstream forms of T. brucei and T. congolense of bis-8-hydroxy quinoline N-substituted benzylamines derivatives was investigated in vitro, according to methods described in. Steverding et al. (2006) Kinetoplastid Biology and Disease, 5(3): 1-5; Hongmance et al., (2007) Antimicrob. Agents Chemother. 51:1105-1106; and Zhao et al., (2005) Bio-org. Med. Chem.; 13: 3921-3926. Cells were seeded into 96-well tissue culture plates in 200 μl medium containing various concentrations of analogues dissolved in H2O. The controls contained the respective solvent alone. […] After 24 h (trypanosomes) or 43 h (HL-60) incubation, 20 μl of the colorimetric viability indicator Alamar Blue® was added to each well. The cells were incubated for a further 24 h (trypanosomes) or 5 h (HL-60) so that the total incubation time was 48 h. Then, the plates were read on a Dynatech MR5000ELISA reader (Denkendorf, Germany),using a test wavelength of 550 nm and a reference wave length of 630 nm. Each test was set up in duplicate and repeated three times. For comparison, the general cytotoxicity of the compounds was assayed with human myeloid leukaemia HL-60 cells. The anti-trypanosomal activities and the general cytotoxicities of the new analogues were evaluated using the Alamar Blue® assay.

Hs683 (human glioma) = assay: Growth inhibition, MTT colorimetric assay, HS683; type: cell-based; settings: Homo sapiens, Hs 683, 72 h; glioma; 3 days with drug; means of six values; unit inferred; read-out: IC50 HS683
Protocol: as §1, with “A549” for “Compounds that met the criteria for activity on KB3 cells were further tested for drug growth inhibitory activity in 5 carcinoma, 6 glioma and 3 melanoma cell lines, shown in Table 4. A549”, “values.” for “values. The standard errors are <5% as compared to the mean values.”

[4] = system: BxPC3 (pancreatic cancer); assay: Growth inhibition, MTT colorimetric assay, BxPC3; type: cell-based, human; settings: Homo sapiens, BXPC-3, 72 h; carcinoma; 3 days with drug; means of six values; unit inferred; read-out: IC50 BxPC3
Protocol: Cells are cultured at 37° C. in Falcon culture dishes, incubated at 5% CO2 in a suitable culture medium available from Invitrogen Corp. Anti-proliferative activity is determined by an MTT assay (bromide of (3-[4,5-dimethylthiazolium-yl]diphenyltetrazolium)). According to one standard protocol, absorbance is measured at 570 nm (see Dumont et al. (2007) Neoplasia 9: 766-776.
as §1, with “A549” for “Compounds that met the criteria for activity on KB3 cells were further tested for drug growth inhibitory activity in 5 carcinoma, 6 glioma and 3 melanoma cell lines, shown in Table 4. A549”, “values.” for “values. The standard errors are <5% as compared to the mean values.”

RhTP (rhabdomyosarcoma) = assay: Growth inhibition, MTT colorimetric assay, RhTp; type: cell-based; settings: 72 h; 3 days with drug; means of six values; unit inferred; read-out: IC50 RhTp
Protocol: as §1

[5] = system: MCF-7 (epithelial breast cancer); assay: Growth inhibition, MTT colorimetric assay, MCF7; type: cell-based; settings: Homo sapiens, MCF7, 72 h; carcinoma; 3 days with drug; means of six values; unit inferred; read-out: IC50 MCF7
Protocol: as §1, with “A549” for “Compounds that met the criteria for activity on KB3 cells were further tested for drug growth inhibitory activity in 5 carcinoma, 6 glioma and 3 melanoma cell lines, shown in Table 4. A549”, “values.” for “values. The standard errors are <5% as compared to the mean values.”

B16-F10 (mouse melanoma) = assay: Growth inhibition, MTT colorimetric assay, B16F10; type: cell-based; settings: Mus musculus, B16-F10, 72 h; melanoma; 3 days with drug; means of six values; unit inferred; read-out: IC50 B16F10
Protocol: as §1

[6] = system: KB3 (epitheloid lung cancer) cell lines; assay: Cell growth inhibition (cytotoxicity), MTS assay, KB3 cell line; type: cell-based; settings: KB3, MTS assay, triplicate, read-out: KB3 IC50
Protocol: Cell growth inhibition was determined by the MTS assay; the number of viable cells were proportional to the extent of formazan production in the presence or absence of drugs. […]

[7] = system: PC3 (human prostate cancer); assay: Growth inhibition, MTT colorimetric assay, PC3; type: cell-based; settings: Homo sapiens, 72 h; carcinoma; 3 days with drug; means of six values; unit inferred; read-out: IC50 PC3
Protocol: as §1

KaKa = assay: Growth inhibition, MTT colorimetric assay, KaKa; type: cell-based; settings: 72 h; 3 days with drug; means of six values; unit inferred; read-out: IC50 KaKa
Protocol: as §1

T98G (glioblastoma) = assay: cells; type: cell-based; settings: Homo sapiens, T98G, 72 h; glioma; 3 days with drug; means of six values; unit inferred; read-out: IC50 T98G
Protocol: as §1, with “A549” for “Compounds that met the criteria for activity on KB3 cells were further tested for drug growth inhibitory activity in 5 carcinoma, 6 glioma and 3 melanoma cell lines, shown in Table 4. A549”, “values.” for “values. The standard errors are <5% as compared to the mean values.”

[8] = system: U373 (human glioblastoma-astrocytoma); assay: Growth inhibition, MTT colorimetric assay, U373; type: cell-based; settings: Homo sapiens, U373 MG, 72 h; glioma; 3 days with drug; means of six values; unit inferred; read-out: IC50 U373
Protocol: as §1

caspases 8 = assay: Caspases 8 activation in HL60 cells (IEDT reagent); type: cell-based, human; settings: 48 hours, 1 μM, 0.1 μM and 0.01 μM
Excerpt: (§2) 7223, using standard commercially available diagnostic kits (Calbiochem, USA). Assay reagents used were DEVD for caspases 3/7, […] for caspases 8, and LEHD for caspases 9. Moreover, colchicine was used as reference compound that induces this activity of caspases.

caspases 3/7 = assay: Caspases 3/7 activation in HL60 cells (DEVD reagent); type: cell-based, human; settings: 48 hours
Excerpt: as §2

caspases 9 = assay: Caspases 9 activation in HL60 cells (LEHD reagent); type: cell-based, human; settings: 48 hours, 1 μM, 0.1 μM and 0.01 μM
Excerpt: as §2

[9] = system: HT-22, an immortalized mouse hippocampal cell line; assay: Neuroprotection of HT-22 cells against toxic insults (calcein viability assay); type: cell-based
Protocol: It is known (P. Aoun, 2003 Eur. J. Pharm. 472:65-71) that Peroxisome proliferator-activated receptors (PPARs) are involved in regulating many metabolic and inflammatory processes. The present invention explores the role of PPAR ligands in protecting neuronal cultures from toxic insults. For that purpose, the new PPAR agonists described in Example 1 were screened for their potential role as neuroprotective compounds. Experiments were performed using HT-22, an immortalized mouse hippocampal cell line, and SK-N-SH, a human neuroblastoma cell line. HT-22 was selected because it expresses PPARγ receptors. Cell viability against glutamate, hydrogen peroxide (H2O2), and serum deprivation insults was determined using a calcein assay. […] Additionally, compounds were protective even when administered simultaneously with glutamate, or for up to 8 h postglutamate insult.
HT-22, an immortalized mouse hippocampal cell line, and SK-N-SH, a human neuroblastoma cell line, were used. HT-22 cells were obtained from David Schubert (Salk Institute, San Diego, Calif.). The HT-22 line was originally selected from HT-4 cells based on glutamate sensitivity. SK-N-SH cells were obtained from ATCC (Manassas, Va.). HT-22 and SK-N-SH cells were grown to confluency in Dulbecco's modified essential medium (DMEM) and RPMI-1640 media, respectively, and supplemented with 10% charcoal/dextran-treated fetal bovine serum (FBS) and […] gentamicin at 37° C. under 95% air/5% CO2. HT-22 cells were plated at a density of 50,000 cells/ml (5000 cells/well), and SK-N-SH cells were plated at a density of 120,000-150,000 cells/ml (12,000-15,000 cells/well) in 96-well plates. In most studies, wells were pretreated with PPAR ligands over a wide dose range at various times prior to being subjected to either glutamate, hydrogen peroxide, or serum deprivation insults. In some studies, the insults were applied prior to the addition of the PPAR ligand.
The following analogues were tested on the HT22 cell line for their neuroprotective effect against glutamate insult and for their anti-inflammatory activity on relevant, models including HT22 cell line.

SMILES | IC50 (U138 MG (human glioma)) [nM] | IC50 (Host) [nM] | IC50 (SKMEL28 (human melanoma)) [nM] | IC50 (GL19) [nM] | GI50 [3] [nM] | MIC [3] [µM] | IC50 (RhTP (rhabdomyosarcoma)) [nM] | IC50 (B16-F10 (mouse melanoma)) [nM] | IC50 ([6]; Table 3A) [nM] | IC50 (KaKa) [nM] | IC50 [8] [nM] | other results
Cc1ccc(C(=O)Nc2ccc(S(=O)(=O)O)c3cc(S(=O)(=O)O)cc(S(=O)(=O)O)c23)cc1NC(=O)c1cccc(NC(=O)Nc2cccc(C(=O)Nc3cc(C(=O)Nc4ccc(S(=O)(=O)O)c5cc(S(=O)(=O)O)cc(S(=O)(=O)O)c45)ccc3C)c2)c1 [suramin] |  |  |  |  |  |  |  |  |  |  |  | IC50 [1]: 400 nM
Oc1ccc(CN(Cc2cccc(C(F)(F)F)c2)Cc2ccc(O)c3ncccc23)c2cccnc12 [BPM19,189, 5,5′-(3-(trifluoromethyl)benzylazanediyl)bis(methylene)diquinolin-8-ol] | 47 | 679 | > 10000 | 674 | 310 ± 10 | 1 (≈ 0.489 µg/mL) | 69 | 89 | 2200 | 6470 | 65 | IC50 [2]: 38 nM; IC50 (LoVo (colon cancer)): 94 nM; IC50 (Hs683 (human glioma)): 36 nM; IC50 [4]: 167 nM; IC50 [5]: 30 nM; IC50 [7]: 37 nM; IC50 (T98G (glioblastoma)): 57 nM
Cc1ccc(CN(Cc2ccc(O)c3ncccc23)Cc2ccc(O)c3ncccc23)cc1 [BPM19,107, 5,5′-(4-(methyl)benzylazanediyl)bis(methylene)diquinolin-8-ol] | 81 | 2460 | 4780 | 1030 | 310 ± 10 | 1 (≈ 0.436 µg/mL) | 84 | 88 | 3 | 710 | 96 | activation of caspases 8 (caspases 8): no effect; activation of caspases 3/7 (caspases 3/7; 0.01 μM): neither BPM18,708 nor BPM19,107 has an effect; activation of caspases 3/7 (caspases 3/7; 0.1 μM): strong effect; activation of caspases 3/7 (caspases 3/7; 1 μM): strong effect; activation of caspases 9 (caspases 9): no effect; neuroprotection from H2O2 insult [9]: dose-dependent neuroprotection; neuroprotection from glutamate insult [9]: dose-dependent neuroprotection
CC(C)(C)OC(=O)N(Cc1cccc(C(F)(F)F)c1)Cc1ccc(O)c2ncccc12 [BPM19,132, Tert-butyl-(8-hydroxyquinolin-5-yl)methyl(3-(trifluoromethyl)benzyl)carbamate] |  |  |  |  |  |  |  |  |  |  |  | IC50 ([6]; Table 3B): 1000 nM; melting point: 114 to 116 °C

— patent US20110251238A1, “PPAR AGONIST COMPOSITIONS AND METHODS OF USE” (BIOPHARMED, priority 2008, published 2011)
